A short description of this series: in vitro. As to conditions: human, hela cells, % viability.
Usually viability stands for a read-out of living cells in per cent, often relative to untreated cells. For the compound `CC(C)(C)OC(=O)Nc1ccc(Oc2ncc(C(F)(F)F)cc2Cl)cc1` [CBK161658], the viability at 28.5 h, 10 µM came out at 99.2%.
The same measure for `Cc1cccnc1Nc1ccc(C2CCCN(C(=O)Cc3ccc4c(c3)CCCO4)C2)nc1` (stereo not shown) [CBK285969]: 89.8%; for `O=C(NC(c1ccccc1)c1ccccc1)c1ccc(Cl)cc1[N+](=O)[O-]` [CBK262452]: 84.1%; for `Oc1ccc(-c2n[nH]c(=S)n2-c2ccccc2)cc1` [CBK014887]: 113%.
Take `Cn1ccnc1CN1C[C@@H]2CCCN2C[C@@H]1Cc1ccccc1` [CBK283202]: the viability at 28.5 h, 10 µM is 91.1%.
For `Cn1ccnc1C1(O)CCN(C(=O)Nc2cccc(F)c2)CC1` [CBK282279], the viability at 28.5 h, 10 µM amounted to 109%.
With `Cc1nn(CC(=O)NC2CCC2)c(=O)c2cc3sccc3n12` [CBK284110], the viability at 28.5 h, 10 µM came to 108%.
`O=C(CCCN1C(=O)/C(=C\c2cccs2)SC1=S)Nc1cccc(C(=O)O)c1` [CBK263636]: the viability at 28.5 h, 10 µM was determined as 98.4%.
With `Cn1cncc1CN1CCNC(=O)C1c1ccccc1C(F)(F)F` (stereo not shown) [CBK305495], the viability at 28.5 h, 10 µM amounted to 98%.
Consider `CN(Cc1cccnc1)C(=O)Cc1ccc(-n2cccn2)cc1` [CBK297726], for which the viability at 28.5 h, 10 µM is 85.6%.
In the case of `CC(C)(C)NC(NC(=O)Cc1ccccc1)C(Cl)(Cl)Cl` (stereo not shown) [CBK261090] it was 86.5%.
Turning to `c1cncc(CN2CCCC(OCc3nc(-c4ccncc4)no3)C2)c1` (stereo not shown) [CBK288621], the viability at 28.5 h, 10 µM amounted to 114%.
Take `N#CC1(NC(=O)CN2CCOC(Cn3cccn3)C2)CCCC1` (stereo not shown) [CBK304911]: the viability at 28.5 h, 10 µM turned out to be 95.8%.
As for `COc1ccccc1-c1cnc2[nH]c(=O)n(CC3CCOCC3)c2n1` [CBK064286], the viability at 28.5 h, 10 µM worked out at 100%.
The same measure for `O=C1CCC(=O)N1CCOc1nccnc1N1CCN(Cc2ccc(Cl)cc2)CC1` [CBK084290]: 96.1%; for `CC(C)S(=O)(=O)N1CCC(C(=O)NC(c2ccccc2)c2ccc3ccccc3n2)CC1` (stereo not shown) [CBK059676]: 94.1%.
The same measure for `Nc1cc2cc(F)ccc2nc1C1CCN(C(=O)C2CC2)CC1` [CBK284657]: 93.4%; for `COc1cncc(-c2cc(N3CCN(S(=O)(=O)c4ccc(Cl)cc4)CC3)ncn2)c1` [CBK091162]: 108%.
As to `CN(C)S(=O)(=O)c1ccc(C(=O)Nc2ccc(Br)cc2C(=O)c2ccccc2)cc1` [CBK263243], the viability at 28.5 h, 10 µM was found to be 81.1%.
The same measure for `Nc1ncc(-c2cccc(F)c2)nc1Nc1ccc2[nH]ccc2c1` [CBK063851]: 95.1%.
In the case of `COc1ccc(C(=O)OC(C)(C)C)c(-c2cncc(N3CCN(CCO)CC3)n2)c1` [CBK037239], the viability at 28.5 h, 10 µM is 101%.
`COCCn1c(SCc2nc3ccccc3nc2C)nc(C)c1C` [CBK305651]: the viability at 28.5 h, 10 µM came to 106%.
In the case of `O=C(c1cc2c(s1)CCC2)N1CCn2c(nnc2C2CC2)C1` [CBK283770] it was 96.6%; in that of `CC(NC(=O)C1CC=CCC1C(=O)O)C1CC2CCC1C2` (stereo not shown) [CBK027112], 114%.
In the case of `CC(=O)N(C)[C@H]1CC[C@]2(CC1)CNC(=O)c1ccccc1O2` [CBK281682] it was 101%.
On to `O=C(N/N=C/c1ccc(O)cc1)c1c[nH]c2ccccc12` [CBK262193], for which the viability at 28.5 h, 10 µM worked out at 91.4%.
The same measure for `Cn1cncc1CN1CCCC(c2cc3cccnc3[nH]2)C1` (stereo not shown) [CBK284948]: 98.4%; for `Cc1cc(O)nc(SCCOCCSc2ccc(Cl)cc2)n1` [CBK267372]: 94%; for `COc1ccc(-c2cc(C(=O)NCCc3c[nH]c4ccccc34)cnc2-c2ccc(F)cc2)cn1` [CBK036649]: 95.2%.
As to `O=C(Cn1cc(C(=O)NCc2ccccc2)ccc1=O)NC1(c2ccccc2)CCCC1` [CBK285753], the viability at 28.5 h, 10 µM was 95.7%.
Turning to `O=C(NC1CC1)[C@H]1CN2CCC1C[C@@H]2Cn1cc(CC2CCCCC2)nn1` (stereo partly shown) [CBK288739], the viability at 28.5 h, 10 µM came to 103%.
